This passage reports MIC results from patent publication US7176313B2, “Anti acid-fast bacterial agent containing pyridonecarboxylic acids as active ingredient” (Daiichi Pharmaceutical Co., Ltd., priority 2000, dated 2007).

Values after ≈ are worked out from the molar mass of the structure shown.

In this experiment the test system is RFP-resistant M. tuberculosis. Kind of experiment: microbe, parasite or virus in culture. Format: cell-based, Mycobacterium tuberculosis.
[1] abbreviates: Mycobacterium tuberculosis, RFP-resistant M. tuberculosis No. 44, Table 8 (series 2).
Setting [2] is: Mycobacterium tuberculosis, RFP-resistant M. tuberculosis No. 45, Table 8 (series 2).
Setting [3] is: Mycobacterium tuberculosis, RFP-resistant M. tuberculosis No. 50, Table 8 (series 2).
[4] abbreviates: Mycobacterium tuberculosis, RFP-resistant M. tuberculosis No. 51, Table 8 (series 2).
[5] abbreviates: Mycobacterium tuberculosis, RFP-resistant M. tuberculosis No. 56, Table 8 (series 2).
Setting [6] is: Mycobacterium tuberculosis, RFP-resistant M. tuberculosis No. 71, Table 8 (series 2).
The mark [7] stands for this setting: Mycobacterium tuberculosis, RFP-resistant M. tuberculosis No. 97, Table 8 (series 2).
The mark [8] stands for this setting: RFP-resistant M. tuberculosis No. 44, Table 8 (series 2).
The mark [9] stands for this setting: RFP-resistant M. tuberculosis No. 45, Table 8 (series 2).
The mark [10] stands for this setting: RFP-resistant M. tuberculosis No. 50, Table 8 (series 2).
[11] abbreviates: RFP-resistant M. tuberculosis No. 51, Table 8 (series 2).
The mark [12] stands for this setting: RFP-resistant M. tuberculosis No. 56, Table 8 (series 2).
The mark [13] stands for this setting: RFP-resistant M. tuberculosis No. 71, Table 8 (series 2).
[14] abbreviates: RFP-resistant M. tuberculosis No. 97, Table 8 (series 2).
Where [15] appears, read: Mycobacterium tuberculosis, RFP-resistant M. tuberculosis No. 44, Table 7.
Setting [16] is: Mycobacterium tuberculosis, RFP-resistant M. tuberculosis No. 45, Table 7.
Where [17] appears, read: Mycobacterium tuberculosis, RFP-resistant M. tuberculosis No. 47, Table 7.
Where [18] appears, read: Mycobacterium tuberculosis, RFP-resistant M. tuberculosis No. 50, Table 7.
Where [19] appears, read: Mycobacterium tuberculosis, RFP-resistant M. tuberculosis No. 56, Table 7.
Setting [20] is: Mycobacterium tuberculosis, RFP-resistant M. tuberculosis No. 71, Table 7.
Setting [21] is: Mycobacterium tuberculosis, RFP-resistant M. tuberculosis No. 97, Table 7.
Where [22] appears, read: RFP-resistant M. tuberculosis No. 44, Table 7.
The mark [23] stands for this setting: RFP-resistant M. tuberculosis No. 50, Table 7.

For `COc1c(N2C[C@@H](C)N[C@@H](C)C2)c(F)cc2c(=O)c(C(=O)O)cn([C@@H]3C[C@@H]3F)c12` [Compd. 16, 7-(3,5-cis-Dimethylpiperazin-1-yl)-6-fluoro-1-[2-(S)-fluoro-1-(R)-cyclopropyl]-1,4-dihydro-8-methoxy-4-oxoquinoline-3-carboxylic acid], the MIC came to 0.25 µg/mL (≈ 0.614 µM) under setting [1]; 4 µg/mL (≈ 9.82 µM) under setting [2]; 0.5 µg/mL (≈ 1.23 µM) (Mycobacterium tuberculosis, RFP-resistant M. tuberculosis No. 47, Table 8 (series 2)); 0.12 µg/mL (≈ 0.295 µM) under setting [3]; 0.5 µg/mL (≈ 1.23 µM) under setting [4]; 64 µg/mL (≈ 157 µM) under setting [5]. For the same compound, the MIC is 0.5 µg/mL (≈ 1.23 µM) under setting [6] and 1 µg/mL (≈ 2.45 µM) under setting [7].

Take `COc1c(N2CCN[C@@H](c3ccccc3)C2)c(F)cc2c(=O)c(C(=O)O)cn([C@@H]3C[C@@H]3F)c12.Cl` [Compd. 26]: the MIC under setting [8] worked out at 0.1 µg/mL; the MIC under setting [9] was 1.56 µg/mL; the MIC under setting [10] came to 0.1 µg/mL; the MIC under setting [11] is 0.2 µg/mL; the MIC under setting [12] was determined as 12.5 µg/mL; the MIC under setting [13] stood at 0.78 µg/mL. Under setting [14], this compound returned an MIC of 0.78 µg/mL.

As to `C[C@H]1COc2c(N3CCN[C@@H](c4ccccc4)C3)c(F)cc3c(=O)c(C(=O)O)cn1c23` [Compd. 27, 9-Fluoro-2,3-dihydro-3-(S)-methyl-7-oxo-10-[3-(S)-phenyl-1-piperazinyl]-7H-pyrido[1.2.3-de][1,4]benzoxazine-6-carboxylic acid], the MIC under setting [8] worked out at 0.1 µg/mL (≈ 0.236 µM); the MIC under setting [9] is 1.56 µg/mL (≈ 3.68 µM); the MIC under setting [10] came to 0.1 µg/mL (≈ 0.236 µM); the MIC under setting [11] amounted to 0.2 µg/mL (≈ 0.472 µM); the MIC under setting [12] was 6.25 µg/mL (≈ 14.8 µM); the MIC under setting [13] is 0.39 µg/mL (≈ 0.921 µM). The compound also yielded an MIC under setting [14] of 0.78 µg/mL (≈ 1.84 µM).

For the compound `COc1c(N2CCNC(CF)(CF)C2)c(F)cc2c(=O)c(C(=O)O)cn([C@@H]3C[C@@H]3F)c12` [Compd. 20, 6-Fluoro-1-[(1R,2S)-2-fluorocyclopropyl]-7-(3,3′-difluoromethylpiperazin-1-yl)-1,4-dihydro-8-methoxy-4-oxoquinoline-3-carboxylic acid], the MIC under setting [1] was 0.39 µg/mL (≈ 0.88 µM); the MIC under setting [2] stood at 6.25 µg/mL (≈ 14.1 µM); the MIC under setting [3] was 0.39 µg/mL (≈ 0.88 µM); the MIC under setting [4] turned out to be 0.78 µg/mL (≈ 1.76 µM); the MIC under setting [5] was 50 µg/mL (≈ 113 µM); the MIC under setting [6] was 1.56 µg/mL (≈ 3.52 µM). The same compound had an MIC under setting [7] of 1.56 µg/mL (≈ 3.52 µM).

Consider `COc1c(N2CCNC(C3CC3)C2)c(F)cc2c(=O)c(C(=O)O)cn([C@@H]3C[C@@H]3F)c12` (stereo partly drawn) [Compd. 24, 7-(3-Cyclopropylpiperazin-1-yl)-6-fluoro-1-[(1R,2S)-2-fluorocyclopropyl]-1,4-dihydro-8-methoxy-4-oxoquinoline-3-carboxylic acid], for which the MIC amounted to 0.78 µg/mL (≈ 1.86 µM) under setting [1]; 12.5 µg/mL (≈ 29.8 µM) under setting [2]; 0.39 µg/mL (≈ 0.93 µM) under setting [3]; 1.56 µg/mL (≈ 3.72 µM) under setting [4]; 50 µg/mL (≈ 119 µM) under setting [5]; 3.13 µg/mL (≈ 7.46 µM) under setting [6]. The MIC under setting [7] was found to be 3.13 µg/mL (≈ 7.46 µM).

Take `COc1c(N2CCN(C)CC2)c(F)cc2c(=O)c(C(=O)O)cn([C@@H]3C[C@@H]3F)c12` [Compd. 15, 6-Fluoro-1-[2-(S)-fluoro-1-(R)-cyclopropyl]-1,4-dihydro-8-methoxy-7-(4-methylpiperazin-1-yl)-4-oxoquinoline-3-carboxylic acid]: the MIC was 0.2 µg/mL (≈ 0.508 µM) under setting [15]; 1.56 µg/mL (≈ 3.97 µM) under setting [16]; 0.39 µg/mL (≈ 0.991 µM) under setting [17]; 0.2 µg/mL (≈ 0.508 µM) under setting [18]; 6.25 µg/mL (≈ 15.9 µM) under setting [19]; 0.39 µg/mL (≈ 0.991 µM) under setting [20]. The MIC under setting [21] was found to be 1.56 µg/mL (≈ 3.97 µM).

As to `COCC1CN(c2c(F)cc3c(=O)c(C(=O)O)cn([C@@H]4C[C@@H]4F)c3c2OC)CCN1` (stereo partly drawn) [Compd. 21, 6-Fluoro-1-[(1R,2S)-2-fluorocyclopropyl]-1,4-dihydro-8-methoxy-7-(3-methoxymethylpiperazin-1-yl)-4-oxoquinoline-3-carboxylic acid], the MIC by setting is: under setting [1], 0.39 µg/mL (≈ 0.921 µM); under setting [2], 3.13 µg/mL (≈ 7.39 µM); under setting [3], 0.39 µg/mL (≈ 0.921 µM); under setting [4], 0.78 µg/mL (≈ 1.84 µM); under setting [5], 25 µg/mL (≈ 59 µM); under setting [6], 1.56 µg/mL (≈ 3.68 µM). Moreover, the MIC under setting [7] came to 1.56 µg/mL (≈ 3.68 µM).

Consider `COc1c(N2CCNC3(CC3)C2)c(F)cc2c(=O)c(C(=O)O)cn([C@@H]3C[C@@H]3F)c12` [Compd. 22, 7-{4,7-Diazaspiro[2.5]octan-7-yl}-6-fluoro-1-[(1R,2S)-2-fluorocyclopropyl]-1,4-dihydro-8-methoxy-4-oxoquinoline-3-carboxylic acid], for which the MIC is 0.78 µg/mL (≈ 1.92 µM) under setting [1]; 25 µg/mL (≈ 61.7 µM) under setting [2]; 0.78 µg/mL (≈ 1.92 µM) under setting [3]; 1.56 µg/mL (≈ 3.85 µM) under setting [4]; 100 µg/mL (≈ 247 µM) under setting [5]; 3.13 µg/mL (≈ 7.72 µM) under setting [6]. The compound also came in with an MIC under setting [7] of 6.25 µg/mL (≈ 15.4 µM).

Take `COc1c(N2CCN3CCC2C3)c(F)cc2c(=O)c(C(=O)O)cn([C@@H]3C[C@@H]3F)c12` (stereo partly drawn) [Compd. 28, 7-{1,4-Diazabicyclo[3.2.1]octan-4-yl}-6-fluoro-1-[(1R,2S)-2-fluorocyclopropyl]-1,4-dihydro-8-methoxy-4-oxoquinoline-3-carboxylic acid]: the MIC by setting is: under setting [1], 0.2 µg/mL (≈ 0.493 µM); under setting [2], 3.13 µg/mL (≈ 7.72 µM); under setting [3], 0.2 µg/mL (≈ 0.493 µM); under setting [4], 0.78 µg/mL (≈ 1.92 µM); under setting [5], 12.5 µg/mL (≈ 30.8 µM); under setting [6], 1.56 µg/mL (≈ 3.85 µM). The compound further displayed an MIC under setting [7] of 1.56 µg/mL (≈ 3.85 µM).

As to `CC1COc2c(N3CCN(C)CC3)c(F)cc3c(=O)c(C(=O)O)cn1c23` (stereo not drawn) [OFLX, OFLOXAIN, reference compound], the MIC was 1.56 µg/mL (≈ 4.32 µM) under setting [22]; 2.0 µg/mL (≈ 5.53 µM) under setting [8]; 25 µg/mL (≈ 69.2 µM) (RFP-resistant M. tuberculosis No. 45, Table 7); 3.20 µg/mL (≈ 8.86 µM) under setting [9]; 8.0 µg/mL (≈ 22.1 µM) (RFP-resistant M. tuberculosis No. 47, Table 8 (series 2)); 0.78 µg/mL (≈ 2.16 µM) under setting [23]. Further, the MIC came to 1.0 µg/mL (≈ 2.77 µM) under setting [10]; 4.0 µg/mL (≈ 11.1 µM) under setting [11]; 16 µg/mL (≈ 44.3 µM) under setting [12]; 4.0 µg/mL (≈ 11.1 µM) under setting [13]; 16 µg/mL (≈ 44.3 µM) under setting [14].

For `C[C@H]1COc2c(N3CC(N)C4(CC4)C3)c(F)cc3c(=O)c(C(=O)O)cn1c23` (stereo partly drawn) [Compd. 14], the MIC under setting [22] is 0.78 µg/mL (≈ 2.09 µM) and the MIC under setting [23] amounted to 0.39 µg/mL (≈ 1.04 µM).

`CO[C@H]1/C=C/O[C@@]2(C)Oc3c(C)c(O)c4c(O)c(c(/C=N/N5CCN(C)CC5)c(O)c4c3C2=O)NC(=O)/C(C)=C\C=C\[C@H](C)[C@H](O)[C@@H](C)[C@@H](O)[C@@H](C)[C@H](OC(C)=O)[C@@H]1C` [RFP, rifampicin, reference compound]: the MIC was above 100 µg/mL under setting [15]; above 100 µg/mL under setting [16]; above 100 µg/mL under setting [17]; above 100 µg/mL under setting [18]; above 100 µg/mL (Mycobacterium tuberculosis, RFP-resistant M. tuberculosis No. 51, Table 7); above 100 µg/mL under setting [19]. Further, the MIC was above 100 µg/mL under setting [20] and above 100 µg/mL under setting [21].

With `COc1c(C2CNC3(CCC3)CN2)c(F)cc2c(=O)c(C(=O)O)cn([C@@H]3C[C@@H]3F)c12` (stereo partly drawn) [Compd. 23, 7-{5,8-Diazaspiro[3.5]nonan-7-yl}-6-fluoro-1-[(1R,2S)-2-fluorocyclopropyl]-1,4-dihydro-8-methoxy-4-oxoquinoline-3-carboxylic acid], the MIC was determined as 1.56 µg/mL (≈ 3.72 µM) under setting [1]; 25 µg/mL (≈ 59.6 µM) under setting [2]; 1.56 µg/mL (≈ 3.72 µM) under setting [3]; 6.25 µg/mL (≈ 14.9 µM) under setting [4]; 100 µg/mL (≈ 238 µM) under setting [5]; 12.5 µg/mL (≈ 29.8 µM) under setting [6]. The MIC under setting [7] was 12.5 µg/mL (≈ 29.8 µM).

`COc1c(N2CCNC(CF)C2)c(F)cc2c(=O)c(C(=O)O)cn([C@@H]3C[C@@H]3F)c12` (stereo partly drawn) [Compd. 19, 6-Fluoro-1-[(1R,2S)-2-fluorocyclopropyl]-7-(3-fluoromethylpiperazin-1-yl)-1,4-dihydro-8-methoxy-4-oxoquinoline-3-carboxylic acid] came in with an MIC under setting [1] of 0.39 µg/mL (≈ 0.948 µM); an MIC under setting [2] of 3.13 µg/mL (≈ 7.61 µM); an MIC under setting [3] of 0.2 µg/mL (≈ 0.486 µM); an MIC under setting [4] of 0.78 µg/mL (≈ 1.9 µM); an MIC under setting [5] of 50 µg/mL (≈ 122 µM); an MIC under setting [6] of 1.56 µg/mL (≈ 3.79 µM). Under setting [7], the MIC worked out at 1.56 µg/mL (≈ 3.79 µM).
